# Measurements reported in ChEMBL document CHEMBL1151147, “Furanoid lignans from Larrea tridentata” (J Nat Prod, 1990).
# Calls of active or inactive are those of the source. The rule behind the calls is not given here.
# Assays:
# Format in all cases: functional, organism-based
# Rattus norvegicus [1] = test: Antiimplantation activity in Sprague-Dawley rat assessed as decrease in implantation sites at 30 mg/kg administered postcoitally; design: dose 30 mg/kg
# Rattus norvegicus [2] = test: Antiimplantation activity in Sprague-Dawley rat administered postcoitally
# Rattus norvegicus [3] = test: Antiimplantation activity in Sprague-Dawley rat assessed as absence of viable fetuses at 15 mg/kg administered postcoitally; design: dose 15 mg/kg
# Rattus norvegicus [4] = test: Estrogenic activity in Sprague-Dawley rat at 30 mg/kg; design: dose 30 mg/kg
# Rattus norvegicus [5] = test: Antiimplantation activity in Sprague-Dawley rat assessed as decrease in fertility rate at 30 mg/kg administered postcoitally; design: dose 30 mg/kg
# Rattus norvegicus [6] = test: Antiimplantation activity in Sprague-Dawley rat assessed as decrease in implantation sites at 60 mg/kg administered postcoitally; design: dose 60 mg/kg
# Rattus norvegicus [7] = test: Antiimplantation activity in Sprague-Dawley rat at 5 mg/kg, po administered postcoitally; design: dose 5 mg/kg
compound,measurement,setting,value
C[C@H]1[C@H](c2ccc(O)cc2)c2cc(O)c(O)cc2C[C@H]1C,Activity,Rattus norvegicus [1],Active
same,Activity,Rattus norvegicus [2],Dose-dependent effect
same,Activity,Rattus norvegicus [3],Active
same,Activity,Rattus norvegicus [4],Active
same,Activity,Rattus norvegicus [5],Active
same,Activity,Rattus norvegicus [6],Active
same,Activity,Rattus norvegicus [7],inactive
